According to ChEMBL document CHEMBL3044736, “Synthesis, characterization, solvatochromic properties, and antimicrobial evaluation of 5-acetyl-2-thioxo-dihydro-pyrimidine-4,6-dione-based chalcones” (2013):
In brackets after ≈: the same amount, converted by molar mass.

Legend:
Assay type in all cases: functional
Penicillium [1] = assay: Antimicrobial activity against Penicillium wild strain assessed as diameter of growth inhibition zone at 50 ug/ml after 48-96 hr by agar cup diffusion method; conditions: read-out: DIZ
Staphylococcus aureus [2] = assay: Antimicrobial activity against Staphylococcus aureus MTCC 96 assessed as diameter of growth inhibition zone at 250 ug/ml after 18-24 hr by agar cup diffusion method; conditions: read-out: DIZ
Streptococcus pyogenes [3] = assay: Antimicrobial activity against Streptococcus pyogenes MTCC 442 by agar cup diffusion method
Streptococcus pyogenes [4] = assay: Antimicrobial activity against Streptococcus pyogenes MTCC 442 assessed as diameter of growth inhibition zone at 50 ug/ml after 18-24 hr by agar cup diffusion method; conditions: read-out: DIZ
Trichophyton rubrum [5] = assay: Antimicrobial activity against Trichophyton rubrum MTCC 296 assessed as diameter of growth inhibition zone at 100 ug/ml after 48-96 hr by agar cup diffusion method; conditions: read-out: DIZ
Staphylococcus aureus [6] = assay: Antimicrobial activity against Staphylococcus aureus MTCC 96 by agar cup diffusion method
Escherichia coli [7] = assay: Antimicrobial activity against Escherichia coli MTCC 443 assessed as diameter of growth inhibition zone at 50 ug/ml after 18-24 hr by agar cup diffusion method; conditions: read-out: DIZ
Streptococcus pyogenes [8] = assay: Antimicrobial activity against Streptococcus pyogenes MTCC 442 assessed as diameter of growth inhibition zone at 250 ug/ml after 18-24 hr by agar cup diffusion method; conditions: read-out: DIZ
Staphylococcus aureus [9] = assay: Antimicrobial activity against Staphylococcus aureus MTCC 96 assessed as diameter of growth inhibition zone at 100 ug/ml after 18-24 hr by agar cup diffusion method; conditions: read-out: DIZ
Trichophyton rubrum [10] = assay: Antimicrobial activity against Trichophyton rubrum MTCC 296 assessed as diameter of growth inhibition zone at 50 ug/ml after 48-96 hr by agar cup diffusion method; conditions: read-out: DIZ
Klebsiella pneumoniae [11] = assay: Antimicrobial activity against Klebsiella pneumoniae MTCC 109 assessed as diameter of growth inhibition zone at 50 ug/ml after 18-24 hr by agar cup diffusion method; conditions: read-out: DIZ
Streptococcus pyogenes [12] = assay: Antimicrobial activity against Streptococcus pyogenes MTCC 442 assessed as diameter of growth inhibition zone at 25 ug/ml after 18-24 hr by agar cup diffusion method; conditions: read-out: DIZ
Candida albicans [13] = assay: Antimicrobial activity against Candida albicans MTCC 227 assessed as diameter of growth inhibition zone at 25 ug/ml after 48-96 hr by agar cup diffusion method; conditions: read-out: DIZ
Candida albicans [14] = assay: Antimicrobial activity against Candida albicans MTCC 227 by agar cup diffusion method
Aspergillus clavatus [15] = assay: Antimicrobial activity against Aspergillus clavatus MTCC 1323 assessed as diameter of growth inhibition zone at 25 ug/ml after 48-96 hr by agar cup diffusion method; conditions: read-out: DIZ
Pseudomonas aeruginosa [16] = assay: Antimicrobial activity against Pseudomonas aeruginosa MTCC 1688 assessed as diameter of growth inhibition zone at 100 ug/ml after 18-24 hr by agar cup diffusion method; conditions: read-out: DIZ
Pseudomonas aeruginosa [17] = assay: Antimicrobial activity against Pseudomonas aeruginosa MTCC 1688 assessed as diameter of growth inhibition zone at 250 ug/ml after 18-24 hr by agar cup diffusion method; conditions: read-out: DIZ
Trichophyton rubrum [18] = assay: Antimicrobial activity against Trichophyton rubrum MTCC 296 by agar cup diffusion method
Candida albicans [19] = assay: Antimicrobial activity against Candida albicans MTCC 227 assessed as diameter of growth inhibition zone at 100 ug/ml after 48-96 hr by agar cup diffusion method; conditions: read-out: DIZ
Penicillium [20] = assay: Antimicrobial activity against Penicillium wild strain assessed as diameter of growth inhibition zone at 250 ug/ml after 48-96 hr by agar cup diffusion method; conditions: read-out: DIZ
Penicillium [21] = assay: Antimicrobial activity against Penicillium wild strain by agar cup diffusion method
Staphylococcus aureus [22] = assay: Antimicrobial activity against Staphylococcus aureus MTCC 96 assessed as diameter of growth inhibition zone at 25 ug/ml after 18-24 hr by agar cup diffusion method; conditions: read-out: DIZ
Klebsiella pneumoniae [23] = assay: Antimicrobial activity against Klebsiella pneumoniae MTCC 109 by agar cup diffusion method
Escherichia coli [24] = assay: Antimicrobial activity against Escherichia coli MTCC 443 assessed as diameter of growth inhibition zone at 25 ug/ml after 18-24 hr by agar cup diffusion method; conditions: read-out: DIZ
Streptococcus pyogenes [25] = assay: Antimicrobial activity against Streptococcus pyogenes MTCC 442 assessed as diameter of growth inhibition zone at 100 ug/ml after 18-24 hr by agar cup diffusion method; conditions: read-out: DIZ
Pseudomonas aeruginosa [26] = assay: Antimicrobial activity against Pseudomonas aeruginosa MTCC 1688 by agar cup diffusion method
Klebsiella pneumoniae [27] = assay: Antimicrobial activity against Klebsiella pneumoniae MTCC 109 assessed as diameter of growth inhibition zone at 100 ug/ml after 18-24 hr by agar cup diffusion method; conditions: read-out: DIZ
Escherichia coli [28] = assay: Antimicrobial activity against Escherichia coli MTCC 443 assessed as diameter of growth inhibition zone at 250 ug/ml after 18-24 hr by agar cup diffusion method; conditions: read-out: DIZ
Pseudomonas aeruginosa [29] = assay: Antimicrobial activity against Pseudomonas aeruginosa MTCC 1688 assessed as diameter of growth inhibition zone at 50 ug/ml after 18-24 hr by agar cup diffusion method; conditions: read-out: DIZ
Aspergillus clavatus [30] = assay: Antimicrobial activity against Aspergillus clavatus MTCC 1323 assessed as diameter of growth inhibition zone at 250 ug/ml after 48-96 hr by agar cup diffusion method; conditions: read-out: DIZ
Aspergillus clavatus [31] = assay: Antimicrobial activity against Aspergillus clavatus MTCC 1323 assessed as diameter of growth inhibition zone at 50 ug/ml after 48-96 hr by agar cup diffusion method; conditions: read-out: DIZ
Penicillium [32] = assay: Antimicrobial activity against Penicillium wild strain assessed as diameter of growth inhibition zone at 25 ug/ml after 48-96 hr by agar cup diffusion method; conditions: read-out: DIZ
Escherichia coli [33] = assay: Antimicrobial activity against Escherichia coli MTCC 443 by agar cup diffusion method
Aspergillus clavatus [34] = assay: Antimicrobial activity against Aspergillus clavatus MTCC 1323 by agar cup diffusion method
Aspergillus clavatus [35] = assay: Antimicrobial activity against Aspergillus clavatus MTCC 1323 assessed as diameter of growth inhibition zone at 100 ug/ml after 48-96 hr by agar cup diffusion method; conditions: read-out: DIZ
Penicillium [36] = assay: Antimicrobial activity against Penicillium wild strain assessed as diameter of growth inhibition zone at 100 ug/ml after 48-96 hr by agar cup diffusion method; conditions: read-out: DIZ
Escherichia coli [37] = assay: Antimicrobial activity against Escherichia coli MTCC 443 assessed as diameter of growth inhibition zone at 100 ug/ml after 18-24 hr by agar cup diffusion method; conditions: read-out: DIZ
Klebsiella pneumoniae [38] = assay: Antimicrobial activity against Klebsiella pneumoniae MTCC 109 assessed as diameter of growth inhibition zone at 250 ug/ml after 18-24 hr by agar cup diffusion method; conditions: read-out: DIZ
Staphylococcus aureus [39] = assay: Antimicrobial activity against Staphylococcus aureus MTCC 96 assessed as diameter of growth inhibition zone at 50 ug/ml after 18-24 hr by agar cup diffusion method; conditions: read-out: DIZ
Trichophyton rubrum [40] = assay: Antimicrobial activity against Trichophyton rubrum MTCC 296 assessed as diameter of growth inhibition zone at 250 ug/ml after 48-96 hr by agar cup diffusion method; conditions: read-out: DIZ
Candida albicans [41] = assay: Antimicrobial activity against Candida albicans MTCC 227 assessed as diameter of growth inhibition zone at 250 ug/ml after 48-96 hr by agar cup diffusion method; conditions: read-out: DIZ
Pseudomonas aeruginosa [42] = assay: Antimicrobial activity against Pseudomonas aeruginosa MTCC 1688 assessed as diameter of growth inhibition zone at 25 ug/ml after 18-24 hr by agar cup diffusion method; conditions: read-out: DIZ
Candida albicans [43] = assay: Antimicrobial activity against Candida albicans MTCC 227 assessed as diameter of growth inhibition zone at 50 ug/ml after 48-96 hr by agar cup diffusion method; conditions: read-out: DIZ
Trichophyton rubrum [44] = assay: Antimicrobial activity against Trichophyton rubrum MTCC 296 assessed as diameter of growth inhibition zone at 25 ug/ml after 48-96 hr by agar cup diffusion method; conditions: read-out: DIZ
Klebsiella pneumoniae [45] = assay: Antimicrobial activity against Klebsiella pneumoniae MTCC 109 assessed as diameter of growth inhibition zone at 25 ug/ml after 18-24 hr by agar cup diffusion method; conditions: read-out: DIZ

O=C(/C=C/c1ccc2ccccc2c1)C1C(=O)NC(=S)NC1=O
zone of inhibition at 50 µg/mL (Penicillium [1]): 18 mm | zone of inhibition at 250 µg/mL (Staphylococcus aureus [2]): 19 mm | MBC (Streptococcus pyogenes [3]): 250 µg/mL (≈ 771 µM) | MIC (Streptococcus pyogenes [3]): 250 µg/mL (≈ 771 µM) | zone of inhibition at 50 µg/mL (Streptococcus pyogenes [4]): 16 mm | zone of inhibition at 100 µg/mL (Trichophyton rubrum [5]): 22 mm | MBC (Staphylococcus aureus [6]): 250 µg/mL (≈ 771 µM) | MIC (Staphylococcus aureus [6]): 200 µg/mL (≈ 617 µM) | zone of inhibition at 50 µg/mL (Escherichia coli [7]): 16 mm | zone of inhibition at 250 µg/mL (Streptococcus pyogenes [8]): 21 mm | zone of inhibition at 100 µg/mL (Staphylococcus aureus [9]): 15 mm | zone of inhibition at 50 µg/mL (Trichophyton rubrum [10]): 20 mm | zone of inhibition at 50 µg/mL (Klebsiella pneumoniae [11]): 15 mm | zone of inhibition at 25 µg/mL (Streptococcus pyogenes [12]): 14 mm | zone of inhibition at 25 µg/mL (Candida albicans [13]): 22 mm | MFC (Candida albicans [14]): > 1000 µg/mL | MIC (Candida albicans [14]): > 1000 µg/mL | zone of inhibition at 25 µg/mL (Aspergillus clavatus [15]): 18 mm | zone of inhibition at 100 µg/mL (Pseudomonas aeruginosa [16]): 15 mm | zone of inhibition at 250 µg/mL (Pseudomonas aeruginosa [17]): 19 mm | MFC (Trichophyton rubrum [18]): 1000 µg/mL (≈ 3080 µM) | MIC (Trichophyton rubrum [18]): 1000 µg/mL (≈ 3080 µM) | zone of inhibition at 100 µg/mL (Candida albicans [19]): 24 mm | zone of inhibition at 250 µg/mL (Penicillium [20]): 23 mm | MFC (Penicillium [21]): 1000 µg/mL (≈ 3080 µM) | MIC (Penicillium [21]): 1000 µg/mL (≈ 3080 µM) | zone of inhibition at 25 µg/mL (Staphylococcus aureus [22]): 10 mm | MBC (Klebsiella pneumoniae [23]): 200 µg/mL (≈ 617 µM) | MIC (Klebsiella pneumoniae [23]): 125 µg/mL (≈ 385 µM) | zone of inhibition at 25 µg/mL (Escherichia coli [24]): 14 mm | zone of inhibition at 100 µg/mL (Streptococcus pyogenes [25]): 18 mm | MBC (Pseudomonas aeruginosa [26]): 125 µg/mL (≈ 385 µM) | MIC (Pseudomonas aeruginosa [26]): 100 µg/mL (≈ 308 µM) | zone of inhibition at 100 µg/mL (Klebsiella pneumoniae [27]): 18 mm | zone of inhibition at 250 µg/mL (Escherichia coli [28]): 21 mm | zone of inhibition at 50 µg/mL (Pseudomonas aeruginosa [29]): 12 mm | zone of inhibition at 250 µg/mL (Aspergillus clavatus [30]): 25 mm | zone of inhibition at 50 µg/mL (Aspergillus clavatus [31]): 20 mm | zone of inhibition at 25 µg/mL (Penicillium [32]): 18 mm | MBC (Escherichia coli [33]): 500 µg/mL (≈ 1540 µM) | MIC (Escherichia coli [33]): 250 µg/mL (≈ 771 µM) | MFC (Aspergillus clavatus [34]): > 1000 µg/mL | MIC (Aspergillus clavatus [34]): > 1000 µg/mL | zone of inhibition at 100 µg/mL (Aspergillus clavatus [35]): 25 mm | zone of inhibition at 100 µg/mL (Penicillium [36]): 21 mm | zone of inhibition at 100 µg/mL (Escherichia coli [37]): 18 mm | zone of inhibition at 250 µg/mL (Klebsiella pneumoniae [38]): 20 mm | zone of inhibition at 50 µg/mL (Staphylococcus aureus [39]): 12 mm | zone of inhibition at 250 µg/mL (Trichophyton rubrum [40]): 23 mm | zone of inhibition at 250 µg/mL (Candida albicans [41]): 25 mm | zone of inhibition at 25 µg/mL (Pseudomonas aeruginosa [42]): 10 mm | zone of inhibition at 50 µg/mL (Candida albicans [43]): 22 mm | zone of inhibition at 25 µg/mL (Trichophyton rubrum [44]): 18 mm | zone of inhibition at 25 µg/mL (Klebsiella pneumoniae [45]): 14 mm
